From US20140342379A1, “Means and Methods for Assessing Gonadal Toxicity” (BASF SE, priority 2011, published 2014)
Values joined by “and” are separate entries in the source; they are usually repeats but may differ in a detail not shown here. Equal values may be shown once. Marks after values point to notes of the source that are not given here.

Tested on: male rats
Assay: 28-day repeated dose study, plasma metabolite profiling (GC-MS, LC-MS), male rats
Assay type: in vivo, rat
Source text: Drinking water was also offered ad libitum.

## COCCO [2-Methoxyethanol]
Day 7
  3-Hydroxybutyrate, plasma, treatment ratio versus control: 0.45*
  3-O-Methylsphingosine (d18:1), plasma, treatment ratio versus control: 0.53*
  5-Oxoproline, plasma, treatment ratio versus control: 0.76*
  Campesterol, plasma, treatment ratio versus control: 0.58*
  Ceramide (d18:1,C24:0), plasma, treatment ratio versus control: 0.75*
  Ceramide (d18:1,C24:1), plasma, treatment ratio versus control: 0.82
  Cholesterol, plasma, treatment ratio versus control: 0.58*
  Coenzyme Q9, plasma, treatment ratio versus control: 0.57*
  Coenzyme Q10, plasma, treatment ratio versus control: 0.7*
  Dodecanol, plasma, treatment ratio versus control: 0.8
  Glutamine, plasma, treatment ratio versus control: 0.68*
  Histidine, plasma, treatment ratio versus control: 1.13
  Isopalmitic acid (C16:0), plasma, treatment ratio versus control: 1.03
  Lignoceric acid (C24:0), plasma, treatment ratio versus control: 0.61*
  Linoleic acid (C18:cis[9,12]2), plasma, treatment ratio versus control: 1.07
  Lysine, plasma, treatment ratio versus control: 1.22*
  Myristic acid (C14:0), plasma, treatment ratio versus control: 0.87
  Palmitic acid (C16:0), plasma, treatment ratio versus control: 0.92
  Palmitoleic acid (C16:cis[9]1), plasma, treatment ratio versus control: 0.71*
  Sphingomyelin (d18:1,C16:0), plasma, treatment ratio versus control: 0.84*
  Sphingomyelin (d18:1,C24:0), plasma, treatment ratio versus control: 0.68*
  Stearic acid (C18:0), plasma, treatment ratio versus control: 0.8*
  Threonine, plasma, treatment ratio versus control: 1.72*
  alpha-Tocopherol, plasma, treatment ratio versus control: 0.78
  erythro-Sphingosine, plasma, treatment ratio versus control: 0.57*
Day 14
  3-Hydroxybutyrate, plasma, treatment ratio versus control: 0.24*
  3-O-Methylsphingosine (d18:1), plasma, treatment ratio versus control: 0.67*
  5-Oxoproline, plasma, treatment ratio versus control: 0.67*
  Ceramide (d18:1,C24:0), plasma, treatment ratio versus control: 0.7*
  Ceramide (d18:1,C24:1), plasma, treatment ratio versus control: 0.62*
  Cholesterol, plasma, treatment ratio versus control: 0.61*
  Coenzyme Q9, plasma, treatment ratio versus control: 0.58*
  Coenzyme Q10, plasma, treatment ratio versus control: 0.49*
  Dodecanol, plasma, treatment ratio versus control: 0.77*
  Glutamine, plasma, treatment ratio versus control: 0.71
  Histidine, plasma, treatment ratio versus control: 1.4*
  Isopalmitic acid (C16:0), plasma, treatment ratio versus control: 0.43*
  Lignoceric acid (C24:0), plasma, treatment ratio versus control: 0.46*
  Linoleic acid (C18:cis[9,12]2), plasma, treatment ratio versus control: 0.77*
  Myristic acid (C14:0), plasma, treatment ratio versus control: 0.57*
  Palmitic acid (C16:0), plasma, treatment ratio versus control: 0.75*
  Palmitoleic acid (C16:cis[9]1), plasma, treatment ratio versus control: 0.39*
  Sphingomyelin (d18:1,C16:0), plasma, treatment ratio versus control: 0.88*
  Sphingomyelin (d18:1,C24:0), plasma, treatment ratio versus control: 0.56*
  Stearic acid (C18:0), plasma, treatment ratio versus control: 0.84*
  Threonine, plasma, treatment ratio versus control: 2.93*
  alpha-Tocopherol, plasma, treatment ratio versus control: 0.76*
  erythro-Sphingosine, plasma, treatment ratio versus control: 0.67*

## CC(C=O)Cc1ccc(C(C)(C)C)cc1 (centres unmarked) [Lysmeral, 2-Methyl-3(4-tert.-butylphenyl)-propanal]
Day 7
  3-Hydroxybutyrate, plasma, treatment ratio versus control: 0.24* and 0.21*
  3-O-Methylsphingosine (d18:1), plasma, treatment ratio versus control: 0.22
  5-O-Methylsphingosine (d18:1), plasma, treatment ratio versus control: 0.19
  5-Oxoproline, plasma, treatment ratio versus control: 0.65*
  Arginine, plasma, treatment ratio versus control: 1.37*
  Campesterol, plasma, treatment ratio versus control: 0.24*
  Ceramide (d18:1,C24:0), plasma, treatment ratio versus control: 0.59*
  Ceramide (d18:1,C24:1), plasma, treatment ratio versus control: 0.47*
  Cholesterol, plasma, treatment ratio versus control: 0.3
  Choline plasmalogen No 03, plasma, treatment ratio versus control: 0.51*
  Coenzyme Q9, plasma, treatment ratio versus control: 0.21*
  Coenzyme Q10, plasma, treatment ratio versus control: 0.33*
  Glutamate, plasma, treatment ratio versus control: 0.72
  Glutamine, plasma, treatment ratio versus control: 0.65*
  Histidine, plasma, treatment ratio versus control: 1.21*
  Homovanillic acid (HVA), plasma, treatment ratio versus control: 0.21*
  Isopalmitic acid (C16:0), plasma, treatment ratio versus control: 0.46*
  Lignoceric acid (C24:0), plasma, treatment ratio versus control: 0.36
  Linoleic acid (C18:cis[9,12]2), plasma, treatment ratio versus control: 0.44*
  Lysine, plasma, treatment ratio versus control: 6.14*
  Myristic acid (C14:0), plasma, treatment ratio versus control: 0.54
  Oleic acid (C18:cis[9]1), plasma, treatment ratio versus control: 0.87
  Palmitic acid (C16:0), plasma, treatment ratio versus control: 0.42*
  Palmitoleic acid (C16:cis[9]1), plasma, treatment ratio versus control: 0.66
  Phosphatidylcholine (C16:0,C18:2), plasma, treatment ratio versus control: 0.89*
  Phosphatidylcholine (C18:1,C18:2), plasma, treatment ratio versus control: 0.74*
  Serine, plasma, treatment ratio versus control: 1.36*
  Sphingomyelin (d18:1,C16:0), plasma, treatment ratio versus control: 0.84*
  Sphingomyelin (d18:1,C24:0), plasma, treatment ratio versus control: 0.52*
  Sphingomyelin (d18:2,C16:0), plasma, treatment ratio versus control: 0.58*
  Stearic acid (C18:0), plasma, treatment ratio versus control: 0.34*
  TAG (C16:0,C16:1), plasma, treatment ratio versus control: 0.47
  Threonine, plasma, treatment ratio versus control: 1.46*
  alpha-Tocopherol, plasma, treatment ratio versus control: 0.52*
  beta-Sitosterol, plasma, treatment ratio versus control: 0.43*
  erythro-Sphingosine, plasma, treatment ratio versus control: 0.21
  threo-Sphingosine, plasma, treatment ratio versus control: 0.25
Day 7, first listing in Table 3
  Lysophosphatidylcholine (C20:4), plasma, treatment ratio versus control: 0.87*
Day 7, second listing in Table 3
  Lysophosphatidylcholine (C20:4), plasma, treatment ratio versus control: 0.67*
Day 14
  3-Hydroxybutyrate, plasma, treatment ratio versus control: 0.29* and 0.2*
  3-O-Methylsphingosine (d18:1), plasma, treatment ratio versus control: 0.45*
  5-O-Methylsphingosine (d18:1), plasma, treatment ratio versus control: 0.48*
  Arginine, plasma, treatment ratio versus control: 1.59*
  Campesterol, plasma, treatment ratio versus control: 0.43*
  Ceramide (d18:1,C24:0), plasma, treatment ratio versus control: 0.59*
  Ceramide (d18:1,C24:1), plasma, treatment ratio versus control: 0.38*
  Cholesterol, plasma, treatment ratio versus control: 0.47*
  Choline plasmalogen No 03, plasma, treatment ratio versus control: 0.66*
  Coenzyme Q9, plasma, treatment ratio versus control: 0.27*
  Coenzyme Q10, plasma, treatment ratio versus control: 0.24*
  Dodecanol, plasma, treatment ratio versus control: 0.75*
  Glutamate, plasma, treatment ratio versus control: 0.93
  Glutamine, plasma, treatment ratio versus control: 0.8
  Histidine, plasma, treatment ratio versus control: 1.37*
  Homovanillic acid (HVA), plasma, treatment ratio versus control: 0.47*
  Isopalmitic acid (C16:0), plasma, treatment ratio versus control: 0.49*
  Lignoceric acid (C24:0), plasma, treatment ratio versus control: 0.52*
  Linoleic acid (C18:cis[9,12]2), plasma, treatment ratio versus control: 0.57*
  Lysine, plasma, treatment ratio versus control: 6.55*
  Myristic acid (C14:0), plasma, treatment ratio versus control: 0.59*
  Oleic acid (C18:cis[9]1), plasma, treatment ratio versus control: 1.01
  Palmitic acid (C16:0), plasma, treatment ratio versus control: 0.56*
  Palmitoleic acid (C16:cis[9]1), plasma, treatment ratio versus control: 0.55*
  Phosphatidylcholine (C16:0,C18:2), plasma, treatment ratio versus control: 0.93*
  Phosphatidylcholine (C18:1,C18:2), plasma, treatment ratio versus control: 0.79*
  Serine, plasma, treatment ratio versus control: 1.54*
  Sphingomyelin (d18:1,C16:0), plasma, treatment ratio versus control: 0.88*
  Sphingomyelin (d18:1,C24:0), plasma, treatment ratio versus control: 0.62*
  Sphingomyelin (d18:2,C16:0), plasma, treatment ratio versus control: 0.53*
  Stearic acid (C18:0), plasma, treatment ratio versus control: 0.51*
  TAG (C16:0,C16:1), plasma, treatment ratio versus control: 0.67*
  Threonine, plasma, treatment ratio versus control: 1.74*
  alpha-Tocopherol, plasma, treatment ratio versus control: 0.56*
  beta-Sitosterol, plasma, treatment ratio versus control: 0.57*
  erythro-Sphingosine, plasma, treatment ratio versus control: 0.51*
  threo-Sphingosine, plasma, treatment ratio versus control: 0.5*
Day 14, first listing in Table 3
  Lysophosphatidylcholine (C20:4), plasma, treatment ratio versus control: 0.95*
Day 14, second listing in Table 3
  Lysophosphatidylcholine (C20:4), plasma, treatment ratio versus control: 0.61*
Day 28
  3-Hydroxybutyrate, plasma, treatment ratio versus control: 0.52* and 0.49*
  3-O-Methylsphingosine (d18:1), plasma, treatment ratio versus control: 0.48*
  5-O-Methylsphingosine (d18:1), plasma, treatment ratio versus control: 0.48*
  5-Oxoproline, plasma, treatment ratio versus control: 0.74*
  Arginine, plasma, treatment ratio versus control: 1.76*
  Campesterol, plasma, treatment ratio versus control: 0.35*
  Ceramide (d18:1,C24:0), plasma, treatment ratio versus control: 0.44*
  Ceramide (d18:1,C24:1), plasma, treatment ratio versus control: 0.38*
  Cholesterol, plasma, treatment ratio versus control: 0.49*
  Choline plasmalogen No 03, plasma, treatment ratio versus control: 0.6*
  Coenzyme Q9, plasma, treatment ratio versus control: 0.31*
  Coenzyme Q10, plasma, treatment ratio versus control: 0.37*
  Glutamate, plasma, treatment ratio versus control: 0.82*
  Glutamine, plasma, treatment ratio versus control: 0.81*
  Histidine, plasma, treatment ratio versus control: 1.56*
  Homovanillic acid (HVA), plasma, treatment ratio versus control: 0.26*
  Isopalmitic acid (C16:0), plasma, treatment ratio versus control: 0.34*
  Lignoceric acid (C24:0), plasma, treatment ratio versus control: 0.6*
  Linoleic acid (C18:cis[9,12]2), plasma, treatment ratio versus control: 0.38*
  Lysine, plasma, treatment ratio versus control: 8.13*
  Myristic acid (C14:0), plasma, treatment ratio versus control: 0.53*
  Oleic acid (C18:cis[9]1), plasma, treatment ratio versus control: 0.81*
  Palmitic acid (C16:0), plasma, treatment ratio versus control: 0.48*
  Palmitoleic acid (C16:cis[9]1), plasma, treatment ratio versus control: 0.37*
  Phosphatidylcholine (C16:0,C18:2), plasma, treatment ratio versus control: 0.92*
  Phosphatidylcholine (C18:1,C18:2), plasma, treatment ratio versus control: 0.83*
  Serine, plasma, treatment ratio versus control: 1.7*
  Sphingomyelin (d18:1,C16:0), plasma, treatment ratio versus control: 0.79*
  Sphingomyelin (d18:1,C24:0), plasma, treatment ratio versus control: 0.64*
  Sphingomyelin (d18:2,C16:0), plasma, treatment ratio versus control: 0.55*
  Stearic acid (C18:0), plasma, treatment ratio versus control: 0.55*
  TAG (C16:0,C16:1), plasma, treatment ratio versus control: 0.66*
  Threonine, plasma, treatment ratio versus control: 2.15*
  beta-Sitosterol, plasma, treatment ratio versus control: 0.55*
  erythro-Sphingosine, plasma, treatment ratio versus control: 0.51*
  threo-Sphingosine, plasma, treatment ratio versus control: 0.51*
Day 28, first listing in Table 3
  Lysophosphatidylcholine (C20:4), plasma, treatment ratio versus control: 0.94*
Day 28, second listing in Table 3
  Lysophosphatidylcholine (C20:4), plasma, treatment ratio versus control: 0.5*
